From patent publication US20240200074A1, “METHOD AND COMPOSITIONS FOR PREVENTING TUMOR DEVELOPMENT AND METASTASIS” (The Administrators of the Tulane Educational Fund, priority 2021, published 2024)
Entries after “also recorded” stand apart in the source; their conditions may differ.

Columns and labels:
TNBC cells = test: Membrane potential assay (mitochondrial) in TNBC cells; assay type: cell-based, human; conditions: in TRAF3IP2 knockdown cells
TNBC [1] = test: Detection of micrometastasis using PCR in TNBC metastatic niches of AO treated animals; assay type: in vivo, mice; conditions: α-satellite DNA of chromosome 17
Procedure: FIG. 4E. Detection of micrometastasis using PCR. Key TNBC metastatic niches were analyzed for micrometastasis using primers directed towards a human-specific alpha-satellite DNA sequence of the centromere region of human chromosome 17.
Moreover, PCR using primers that specifically detect human-specific a-satellite DNA sequence of the centromere region of human chromosome 17 indicated no micrometastasis in the treated group.

TRAF3IP2 = test: Post-mortem Western blotting and immunohistochemical analysis of residual TNBC tumor of AO treated animals; assay type: in vivo
Source text: Post-mortem analysis of residual tumor confirmed that targeting TRAF3IP2 suppresses inflammation, angiogenesis, cell cycle and apoptosis, and genes involved in exosome release (FIG. 7(A)).

wild type 4IC cells = test: 4IC tumors in vivo, combination therapy with Paclitaxel and TRAF3IP2-AO; conditions: vs SCR-AO group
Procedure: At first, tumors were induced using wild type 4IC cells using a similar set up described in FIG. 5. After tumor induction, each group was treated with one of the following: SCR-AO (4IC SCR-AO Treated), SCR-AO and Paclitaxel (SCR-AO+Paclitaxel Treated), TRAF3IP2-AO Treated, or TRAF3IP2-AO and Paclitaxel (TRAF3IP2-AO+Paclitaxel Treated).

4IC tumors = test: Treatment of late stage metastatic TNBC, bioluminescence imaging; assay type: in vivo, mice; conditions: 100 μg in 50 μl interperitoneally every 48 hours from day 42
Procedure: To see if targeting and silencing TRAF3IP2 eliminates metastatic tumors in advanced metastatic TNBC, PDX model were used. 4IC tumors were induced intramammary into mice using 4IC cells [carrying a luciferase-expressing gene for ‘bioluminescence imaging’. Treatment was initiated in late stage BC indicated by advanced metastasis detectable by luciferase imaging (day 42). Animals were treated with TRAF3IP2-AO (100 μg in 50 μl) administered interperitoneally every 48 hours. Control group received SCR-AO in the same fashion (Data not shown). Representative images showing the extend of metastasis after treatment 1(T1), T5, T10, and T15. The control animals were treated with SCR-AO only on T1 and were euthanized due to the increasing tumor growth.

TNBC [2] = test: TNBC treated in vivo with antisense oligonucleotide, immunohistochemical analysis of angiogenesis
Source text: Also, it is notable that TRAF3IP2 induces the expression and release of pro-angiogenic mediators into the TME, activating endothelial cells to promote neo-vascularization. TRAF3IP2 silencing.

BN2 glioblastoma [3] = test: Glioblastoma PDX (BN2) intracranial model, ICV administration of AO, 2PE imaging and histology; assay type: in vivo, NSG mice
Source text: For the experiments reported here, the BN2 glioblastoma specimen was used in xenograft studies, and the results are shown in FIG. 14. Glioblastoma was induced by intracranial injection of tumor cells (into the left SSCx of NSG mice; 3×10^5 cells in PBS+Martigel; n=5 mice/group) isolated from primary glioblastoma tissue. At the time of the injection, a chronic cranial window was installed on the left side of the animal's skull that allowed in vivo 2PE imaging of tumor evolution.
For intracerebroventricular (ICV) administration of AO targeting TRAF3IP2 (TRAF3IP2-AO) or control scrambled AO (SCR-AO), a brain cannula was stereotaonctically implanted into the contralateral (right) ventricle (FIG. 14-A). Treatment of mice started on day 10 post-tumor induction with 5 μl every 48 h; 30 nanomolar AO (FIG. 14-B).
Using in vivo 2PE microscopy, angiograms of microvessels in glioblastoma tumors were captured through a cranial window after i.v. injection of fluorescein isothiocyanatedextran for visualization of blood vessels (green signal). Images correspond to day 24 post-tumor induction, after 8 ICV treatments with either SCR-AO (B, I&II; control group), or TRAF3IP2-AO (B IV&V).
Protein expression in residual tumors confirmed that targeting TRAF3IP2 suppresses inflammation, neoangiogenesis, cell cycle and apoptosis (FIG. 14-D).

BN2 glioblastoma [4] = test: Detection of intracranial dissemination by PCR of human-specific α-satellite DNA in brain biopsies; assay type: in vivo, NSG mice; conditions: compared to SCR-AO treated group
Source text: To detect intracranial micrometastasis, the animals in experiments detailed in FIG. 14 were biopsied from adjacent sections of brain. The biopsy specimen were subjected to PCR assay using primers that specifically detect human-specific a-satellite DNA sequence of the centromere region of chromosome 17. Areas evaluated include the left parietal lobe, at a distance of 2 mm from the focus of initial tumor inoculation (Area I) and the right SSCx equidistant from the interhemispheric fissure relative to the focus of initial tumor inoculation (Area II) (FIG. 15).

4IC = test: Cell cycle profile of 4IC cells in vitro, Paclitaxel and TRAF3IP2 knockdown; assay type: cell-based, human
Source text: One chemotherapy agent being tested is Paclitaxel. […] Paclitaxel has been previously shown to arrest cell cycle progression at the G2/M phase, resulting in apoptosis.

U87 = test: MTT assay with IGU, adult GBM cell line; assay type: cell-based, human
Procedure: (§1) In vitro investigations were carried out using transduced TNBC cell line (MDAMB-231) and patient derived TNBC cells (4IC), pediatric GBM cell line (KNS), and adult GBM cell line (U87) by targeting and suppressing/silencing TRAF3IP2 expression using shRNA Lentiviral vector (TRAF3IP2KD) versus shRNA control (SCR). Using MTT assay, we treated malignant cells with low and high concentrations of IGU to test cell proliferation, viability, and apoptosis compared to vehicle (DMSO) treated cells. It is shown in FIG. 16 that the silencing of TRAF3IP2 enhances the effect of IGU on adult glioblastoma cells (U87), pediatric glioblastoma cells (KNS) and on triple negative cancer cell growth (data not shown).

KNS = test: MTT assay with IGU, pediatric GBM cell line; assay type: cell-based, human
Procedure: as §1

FCCP
mitochondrial membrane potential on addition of FCCP (TNBC cells): does not decrease mitochondrial membrane potential

TRAF3IP2-AO: anti-sense oligonucleotide targeting TRAF3IP2, SEQ ID NO: 2 mG*mG*mU*mG*mG*G*C*A*C*A*T*G*C*T*C*mC*mU*mU*mC*mU
micrometastasis: human-specific DNA sequence in most common metastatic sites (TNBC [1]): No human specific DNA sequence was detected
immunohistochemical levels of TRAF3IP2, IL8 and Caspase 3 in tumor (TRAF3IP2; treated group vs. SCR-AO): decreased levels of TRAF3IP2 and IL8 and increased Caspase 3
levels of TRAF3IP2, IL8, IL1b, and VEGF in tumors (protein expression analysis) (TRAF3IP2; vs. SCR-AO): significantly lower levels
reduction of tumor volume / tumor size (wild type 4IC cells): 78%
luciferase signal (metastasis) (4IC tumors): marked reduction of luciferase signal, reaching undetectable levels after 15 treatments
tumor growth (TNBC [2]; TNBC in vivo): reduced tumor growth
blood vessel density/angiogenesis (CD31 staining) (TNBC [2]; compared to SCR-AO treated tumors): lower blood vessel density/angiogenesis
TNBC cells (human cells) in residual tumor tissue, staining for human-specific mitochondria (TNBC [2]; in vivo): significantly less number
tumor growth / tumor size (BN2 glioblastoma [3]; ICV, 5 μl every 48 h, 30 nanomolar AO from day 10, vs. SCR-AO): reduced tumor growth; also recorded: marked reduction in tumor size; also recorded: significantly less growth and smaller volumes
blood vessel density / vascularization (BN2 glioblastoma [3]; compared to SCR-AO treated): lower blood vessel density/angiogenesis; also recorded: less vascularization
glioblastoma cells (human cells) in residual tumor tissue, staining for human-specific mitochondria (BN2 glioblastoma [3]; mouse, in vivo): significantly less number
infiltrating cells in subcortical areas (histology of brain sections) (BN2 glioblastoma [3]; mouse, in vivo): significantly smaller number of infiltrating cells
intracranial metastasis at Area I (left parietal lobe) and Area II (right SSCx) (BN2 glioblastoma [4]): markedly reduced metastasis at both sites

CC(=O)O[C@H]1C(=O)[C@@]2(C)[C@H]([C@H](OC(=O)c3ccccc3)[C@]3(O)C[C@H](OC(=O)[C@H](O)[C@@H](NC(=O)c4ccccc4)c4ccccc4)C(C)=C1C3(C)C)[C@]1(OC(C)=O)CO[C@@H]1C[C@@H]2O [Paclitaxel, reference compound]
increase of proportion of cells in G2 (4IC): 23%
reduction of tumor volume / tumor size (wild type 4IC cells): 42%

CS(=O)(=O)Nc1cc2occ(NC=O)c(=O)c2cc1Oc1ccccc1 [IGU, N-[7-(methanesulfonamido)-4-oxo-6-phenoxychromen-3-yl]formamide]
cell viability (U87; 48 hours, C2 (224.823 mM IGU), U87TRAF3IP2KD): about 40%
cell viability (U87; 48 hours, C2 (224.823 mM IGU), control group U87): about 50%
cell viability (U87; 72 hours, C2, U87TRAF3IP2KD): about 20%
cell viability (U87; 72 hours, C2, control group U87): about 40%
cell viability (KNS; 24 hours, C2, KNS control): about 65%
cell viability (KNS; 24 hours, C2, KNSTRAF3IP2KD): about 55%
cell viability (KNS; 48 hours, C1, KNS control): about 55%
cell viability (KNS; 48 hours, C1, KNSTRAF3IP2KD): about 45%
cell viability (KNS; 72 hours, C2, KNS control): about 40%
cell viability (KNS; 72 hours, C2, cells not named (KNSTRAF3IP2KD implied)): about 25%
